This is an account of results in paper PMC4229098, “Alzheimer's Therapeutics Targeting Amyloid Beta 1–42 Oligomers I: Abeta 42 Oligomer Binding to Specific Neuronal Receptors Is Displaced by Drug Candidates That Improve Cognitive Deficits” (PLoS ONE, 2014).

For series [1], the system named is mature primary hippocampal and cortical cultures. The series can be described thus: Membrane trafficking assay (MTT formazan exocytosis).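 Note: mixed neuron and glia cultures from E18 Sprague-Dawley rat embryos, grown 3 weeks in 384-well plates, labeled vesicles quantified by imaging or spectrophotometry as percent of vehicle-treated wells.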 Format: cell-based, rat.
Protocol: Vesicular trafficking was measured using an adaptation of a method by Liu and Schubert [51]. […] Tetrazolium salts (3-(4,5-dimethylthiazol-2yl)-2,5diphenyl tetrazolium bromide, Roche Molecular Biochemicals) were added to a final concentration of 0.75 mM and incubated at 37°C for 60–90 min. Vesicular formazan remaining in cells was quantified by absorbance spectrometry (590 nm with 690 nm subtracted) following extraction with 1.6% Tween-20. All compounds were tested in quadruplicate wells for each concentration in at least 8 replicate experiments with data from all experiments pooled for analysis with means ± S.E.M.
The amount of labeled vesicles in treated cells is quantified by automated image processing or by spectrophotometry following extraction from cells and is calculated as a percentage of vehicle-treated values. Control wells consist of Abeta and vehicle treatment without test compounds. […] In the prevention configuration of this assay, compounds are added to neuronal cultures first, followed by oligomers. Compounds are also tested in the treatment configuration of this assay in which oligomers are added to the cultures first, followed by compound addition.
The test system of series [2] is synaptophysin-immunopositive puncta along MAP2-labeled neurites. Kind of series: Synapse counting assay. Format: cell-based, rat. The settings on record: for loss of synaptophysin-immunoreactive puncta: synthetic Abeta oligomers vs vehicle, 24 hrs. Here is the method: Sprague-Dawley rats, 18 days pregnant, were euthanized by CO2 asphyxiation followed by cervical dislocation, and embryos were removed. Hippocampus and cortical tissue from the embryo brains were digested in 2.5% Trypsin (Life Technologies) to dissociate cells. Isolated cells were plated at a density of 4.6×10^4 cells per cm^2 in 384-well poly-D Lysine coated plates (Greiner) in Neurobasal Media (Life Technologies) supplemented with B27 (Life Technologies), Glutamax (Life Technologies) and antibiotics (penicillin, 50 units/ml and streptomycin 50 µg/ml, Life Technologies). Cultures were maintained at 37°C in 5% CO2 with weekly media change for 3 weeks prior to experimentation. These mixed cultures of hippocampal plus cortical neurons and glia were used for all of the in vitro experiments described.
Cultures were treated with compounds for 60 minutes prior to addition of 6 µM (maximum from trafficking dose-response curve) of synthetic Abeta 1–42 oligomers and incubated for 24 hrs. Cultures were fixed and immunofluorescently labeled and imaged as for the Abeta binding assay. The ThermoFisher/Cellomics Neuronal Profiling bioapplication was used to count synaptophysin-immunopositive puncta along MAP2-labeled neurites. The number of puncta per unit length of neurites was used to determine effects of treatments. To attain statistical power of 80% and a p value of less than 0.05 (determined using G*Power software), twenty replicate wells were treated per experiment plate and compared to control wells on the same plate and experiments were repeated four times.

The subject of series [3] is C57/BL6 mice injected with Abeta oligomers. Kind of series: Contextual fear conditioning after intrahippocampal Abeta oligomer injection. Format: in vivo. As to conditions: injected into dorsal hippocampi 24 hours prior to testing. The text has this:
(§1) All procedures were approved by the Institutional Animal Care and Use and Committee at Columbia University and Stanford University and were in compliance with the Office of Laboratory Animal Welfare and the Guide for the Care and Use of Laboratory Animals, Eighth Edition. Behavioral testing of wild-type, 3–4 month old, male, C57/BL6 mice, injected bilaterally into their hippocampus with Abeta oligomers and testing in the fear conditioning task was done according to published methods. Animals were anesthetized with […] Avertin prior to implantation of cannulas into the hippocampus. Testing of transgenic hAPP Swedish/London mice in the Morris water maze or fear conditioning tasks was done according to published methods, [38]. To measure brain concentration of drugs, brains were homogenized in 1 ml PBS per gram of brain tissue using a handheld homogenizer. Brain homogenate was then extracted with three volumes of ice cold methanol on ice for 15 minutes and centrifuged for 15 min. The supernates were analyzed by LC/MS/MS. Samples were compared to a calibration curve prepared in a similar manner by spiking blank control homogenate with standards prepared in DMSO and then extracted as above. At the end of all behavioral testing, animals were euthanized with CO2 followed by cervical dislocation.

For the next series, the system named is glia. Kind of series: Abeta binding assay, glia cell bodies. Also on record: species or system rat.
Series [4] has as its system neuronal synaptic puncta in hippocampal/cortical cultures. Kind of series: Abeta binding assay, neurons (immunofluorescence of neurite puncta). Further details: species or system rat.
Protocol: Alternatively, displacement of prebound oligomers was evaluated by adding oligomers 60 min prior to the addition of compounds, followed by additional 30 minutes incubation. Cells were fixed with 3.75% formaldehyde for 15 min, blocked with 5% normal goat serum and 0.5% Triton X-100 and incubated with primary antibodies for Abeta (1 µg/ml 6E10 or 4G8, Covance catalog numbers SIG-39320 and SIG-39330, respectively), MAP-2 (0.2 µg/ml Chemicon), Synaptophysin-1 (1 µg/ml, Anaspec), glial fibrillary acidic protein (GFAP, 1 µg/ml, Thermo-Fisher) and fluorescently labeled secondary antibodies (2 µg/ml, Invitrogen). Images were acquired on a Cellomics VTi automated microscope with a 20X, 0.75 NA objective and analyzed using ThermoFisher/Cellomics Neuronal Profiling bioapplication set to measure punctate labeling of Abeta and synaptophysin-1 along MAP-2 labeled neurites. For each replicate experiment, at least 100 neurons were sampled from 4 replicate wells for each experimental condition (400 to 500 neurons per experimental condition). […] All data presented for Abeta binding to neurons represents total intensity of Abeta label in neurite spots per neuron, in relative fluorescent units (RFU), unless otherwise indicated.
In series [5] the test system is hippocampal/cortical cultures. The series can be described thus: Internalization of Abeta oligomers (immunolabeling with/without detergent). Format: cell-based, rat. The settings on record: for bound Abeta at the surface: 1 µM. As for the experimental part: Supplementary file pone.0111898.s002.tif: Figure S2 Internalization of Abeta oligomers. After treatment with Abeta oligomers (1 µM) for 1 hr (A, B) or 2 hr (C, D), cultures were fixed and immunolabeled for Abeta either in the presence of 0.05% Triton X-100 to permeabilize cells to immunoglobulins and measure all Abeta present (A, C) or in the absence of this detergent (B, D) to detect only Abeta bound at the cell surface. […] (TIF) Click here for additional data file.

Another series deals with T1, sigma-2/PGRMC1 receptor (Homo sapiens, UniProt Q5BJF2).
T1 construct: endogenous in cells; host or cells: human Jurkat cells (membranes)
T1 sequence (Q5BJF2 whole entry): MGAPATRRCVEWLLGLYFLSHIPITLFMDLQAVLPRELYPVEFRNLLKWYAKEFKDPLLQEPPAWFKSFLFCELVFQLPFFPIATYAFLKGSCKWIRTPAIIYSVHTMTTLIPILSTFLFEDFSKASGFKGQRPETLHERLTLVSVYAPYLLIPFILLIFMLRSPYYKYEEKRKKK
Kind of series: Sigma-2 radioligand binding. The settings on record: radioligand competition binding; read-out: Ki, binding affinity at the sigma-2/PGRMC1 receptor. Here is the method:
Radioligand competition assays were performed in membranes from human Jurkat cells using 5 nM [^3H]1,3-di(2-tolyl) guanidine in the presence of 1 µM (+)-pentazocine with 10 µM haloperidol to define non-specific binding.
A general note: Displacement assays read how much labelled ligand stays bound in the presence of the test substance.

In series [6] the test system is hAPP Swe/Ldn transgenic mice. The series can be described thus: Contextual fear conditioning in transgenic mice. Format: in vivo. As to conditions: 30 mg/kg/day p.o., 5.5 months, 9 month old males.
Source text: as §1

Series [7] relates to mouse models of Alzheimer's disease. Kind of series: Behavioral tests (behavioral efficacy summary). Format: in vivo, mice. Further details: key to Measured efficacy: statistically significant improvement (+); no significant improvement (-).
Source text: as §1

The nature of series [8]: Brain concentration of compounds (LC/MS/MS). Format: in vivo, mice. As to conditions: hAPP Swe/Ldn transgenic, mouse, 24 h after last dose, read-out: Compound Concentration in brain.
Source text: as §1

Series [9] concerns hAPP Swe/Ldn transgenic mice. The series can be described thus: Morris water maze probe trial. Format: in vivo. As to conditions: 42 days.
Source text: as §1

Where “and” joins values, the source holds several entries; their conditions need not be identical. Identical values can stand only once. Like-named read-outs stand apart in the source and are kept apart here.

Protocol for glia: Measurements of Abeta binding to glia were made with a separate algorithm (ThermoFisher/Cellomics Target Activation bioapplication) which identifies cells lacking MAP2 labeling. Glial cells were analyzed after separating them based on their nuclear morphology as determined by the characteristics of their DAPI labeling, as described in Fig. S1. […]
The morphology of MAP-2 negative glial nuclei labeled with DAPI was analyzed via automated image processing. […]

Turning to “synthetic oligomers (high concentration): synthetic human Abeta 1–42 oligomerized at 100 µM, 4°C, 24 hr; contains monomer [reference compound]”, the “Treatment duration for maximum response” value in series [1] (Abeta preparation dosed alone) was found to be 24 h. The EC50 was determined as 0.462 ± 0.056 µM in series [1] (preparation dosed alone, listed as synthetic Abeta oligomers, read-out: EC50 of Abeta preparation) and 0.46 µM in series [1] (preparation dosed alone, read-out: EC50 of Abeta preparation). The “loss of synaptophysin-immunoreactive puncta” value in series [2] (listed as Oligomers) is 18%±2; in [2] (listed as synthetic Abeta oligomers), 18%. The “effect of Abeta oligomers on contextual fear memory” value in series [3] is recorded as “cause a deficit in contextual fear conditioning-dependent associative memory”. Also, the Kd is > 1000 µM in the series on glia (non-saturable site, read-out: Kd Site 2, glia cell bodies with condensed/asymmetric nuclear morphology); 0.289 µM in the series on glia (read-out: Kd Site 1 (high affinity), glia cell bodies with condensed/asymmetric nuclear morphology); 0.518 µM in [4] (60 min treatment, read-out: Kd Site 1 (high affinity), neurons synaptic puncta). In addition, in series [4] (440 nM total Abeta, 60 minutes), the “bound puncta colocalizing with synaptophysin presynaptic terminals” value was 37%±3%. Besides, the “bound Abeta at the surface” value in series [5] (1 hr exposure) is on record as 96%±8%; in [5] (2 hrs exposure) it was 73%±3%. The “bound Abeta internalized” value in series [5] (2 hr exposure, listed as Abeta oligomers) is 27%±8% and 27±8%.
Regarding `C[C@H](CCc1ccc(Cl)cc1)NCc1ccc(C(F)(F)F)cc1` [CT01346], the EC50 in series [1] (Rattus norvegicus, 1 h, compound added 1 hr after Abeta oligomers, log value, read-out: Treatment Log EC50 ± SE (converted)) is 8.71 µM; in [1] (Rattus norvegicus, 1 h, compound added 1 hr after synthetic Abeta oligomers, read-out: Treatment EC50), 8.7 µM; in series [1] (Rattus norvegicus, compound added 1 hr prior to Abeta oligomers, log value, read-out: Prevention Log EC50 ± SE (converted)) it was 9.33 µM; in series [1] (Rattus norvegicus, compound added 1 hr prior to synthetic Abeta oligomers, read-out: Prevention EC50), 9.4 µM. This compound came in with a Schild slope in series [1] (against synthetic oligomers) of 1. Besides, the “Affects Synapse density in the absence of Aβ” value in series [2] (Table S1) is reported as “No”. At sigma-2/PGRMC1 receptor, the Ki worked out at 0.05 µM. Further, in [6], the “contextual fear memory performance” value is recorded as “significantly improved fear memory performance”. Also, in series [4] (15 µM compound added 1 hour after oligomers 0.5 µM, within 1 hour), the “displacement of Abeta oligomers” value is recorded as 93±13%. Also, the “prevention of binding of Abeta oligomers to neuronal cultures” value in series [4] (15 µM compound one hour prior to synthetic Abeta oligomers 0.5 µM) was 93%±4%. Further, the Measured efficacy result in [7] (10 mg/kg/day oral gavage) is recorded as “-”; in series [7] (30 mg/kg/day oral gavage), “+”. In series [7] (Table S1), the Behavioral efficacy entry was “Yes”. For the same compound, the concentration at 24 h in series [8] (10 mg/kg/day once daily oral gavage) was found to be 54 nM; in series [8] (30 mg/kg/day once daily oral gavage), 330 nM. The “spatial memory retrieval performance, transgenic animals” value in series [9] (30 mg/kg/day oral, eleven month-old females) is listed as “significantly improves spatial memory retrieval performance”. Also, the “behavior of treated nontransgenic animals” value in series [9] (30 mg/kg/day p.o.) is “behaved similarly to vehicle-treated wild-type animals”.
